Measurements published in US9243227B2, “Cytotoxic T lymphocyte” (Mie University, priority 2004, dated 2016).

Assays:
[1] = tested on: human bulk CTLs sensitized with mRNA-introduced autologous CD4+ PHA blast cells; assay: IFN-γ ELISPOT assay (human) with peptide-pulsed T2A24 cells; type: cell-based
Method: On the 0th day, PHA (trade name: HA15, manufactured by Murex S.A.) was added to the medium in each well of the plate at a final concentration of 10 μg/milliliter. On the 3rd day, half amount of the medium was exchanged with the above medium containing IL-2 (20 U/milliliter) and IL-7 (40 ng/milliliter). Exchange of the medium was repeated every 3 days, whereby activated CD4-positive cells were obtained. The mRNA was introduced by electroporation into the activated CD4-positive cells at 14 to 28 days after culture was initiated. The resulting cells were used below as antigen-presenting cells.
MACS CD8 Microbeads (trade name, manufactured by Miltenyi Biotec) were used, to separate CD8+ T cells from PBMC. The number 5×10^5 cells of CD8+ T cells thus obtained were stimulated with radiation (30 Gy)-irradiated 1×10^5 mRNA-introduced CD4+ PHA blast cells in a 96-well round plate (manufactured by Nunc Corporation). After 7 days, the CD8+ T cells were stimulated again with radiation (30 Gy)-irradiated 1×10^5 mRNA-introduced CD4+ PHA blast cells, and then cultured in an IL-2 (20 IU/milliliter)-containing RPMI1640 medium for 7 days.
To amplify the sensitized CD8+ T cell group containing the antigen-specific CTLs, autologous LCLs (5×10^6 cells) into which the target antigen mRNA was introduced, autologous PBMCs (2.5×10^7 cells), and IL-2 (20 IU/milliliter) were added to the sensitized CD8+ T cell group. The resulting mixture was cultured in the absence of anti-CD3 antibody in a 25-milliliter flask (manufactured by Corning Incorporated).
A 96-well nitrocellulose ELISPOT plate (trade name: MAHA 54510, manufactured by Millipore Corporation) was coated by overnight incubation at 4° C. with 2 μg/milliliter antihuman IFN-γ mAb (trade name: 1-D1K). Each well was washed with PBS, and then blocked by incubation at 37° C. for 2 hours with RPMI1640 medium containing 10 wt % human AB serum. Effector cells (2×10^4 cells/well) and peptide-pulsed T2A24 cells (5×10^4 cells/well) were seeded to each well. […] Then, the plate was dried and spots were counted.

[2] = tested on: CD8+ cells from HLA-A2402-positive healthy normal volunteers; assay: In vitro induction of human CTLs using CD8− PBMC pulsed with a peptide; type: cell-based; details: one stimulation with CD8-negative PBMC pulsed with 10 μM peptide; 10 days after mixed lymphocyte reaction in vitro
Method: The number 1×10^7 of CD8-negative PBMC were pulsed with 10 μM peptide by incubation at room temperature for 1 hour and at 37° C. in 5% CO2 for 1 hour, in 200 μl RPMI1640 medium containing 25 mM Hepes, 10 wt % inactivated human AB-positive serum, 2 mM L-glutamine, 100 U/milliliter penicillin, and 100 μg/milliliter streptomycin. The resulting cells were used as antigen-presenting cells. The number 5×10^5 of CD8+ T cells that were separated were then stimulated by incubation for from 10 to 12 days with 1×10^6 cells of the peptide-pulsed CD8− PBMC. On Days 1, 4 and 7, half amount of the medium was exchanged with fresh one, and human IL-2 (20 IU/milliliter) and IL-7 (50 ng/milliliter) were added thereto. Culturing for induction was conducted in 200 μl RPMI1640 medium (containing 25 mM Hepes, 10 wt % inactivated human AB serum, 2 mM L-glutamine, 100 U/milliliter penicillin, 100 μg/milliliter streptomycin). […]
In staining, sensitized CD8+ T cells were reacted with 20 μg/milliliter tetramer at 37° C. for 30 minutes, and then reacted with a tricolor anti-CD8 monoclonal antibody (trade name, Caltag Laboratories, Burlingame, Calif., USA) on ice for 15 minutes. After washing, the stained cells were analyzed by flow cytometry (trade name: FACSCalibur, manufactured by Becton Dickinson, and Company). […]

[3] = tested on: CD8-positive cells derived from immunized HHDA2402+/−β2m−/− mice; assay: IFN-gamma ELISPOT assay (mice), gene gun-immunized HLA-A2402 transgenic mice; type: cell-based, mouse; details: HHDA2402 mice immunized twice by gene gun with plasmid of the parent antigen; CD8-negative cells pulsed with peptide as target cells; FIG. 1A-1C
Method: A DNA construct (HHDA2402) containing an HLA-A2402 leader sequence, human β2 microglobulin, HLA-A2402 α1 and α2 domains, an H-2D^b α3 transmembrane domain, and a cytoplasm domain was constructed. The resulting construct was cloned into an expression vector pcDNA 3.1 (manufactured by Invitrogen Corporation). The HHDA2402 construct (4 kb SalI-NotI fragment) was injected into fertilized eggs of C57BL/6 mice, to give HHDA2402-expressing mice. Then, the […] mice were bred with β2m−/− mice (manufactured by The Jackson Laboratory). The resulting HHDA2402+/−β2 m+/− were bred with β2m−/− mice to give HHDA2402+/−β2m−/− mice (referred to hereinafter as “HHDA2402 mice”).
Using Helios Gene Gun System (trade name, manufactured by Bio-Rad Laboratories, Inc.), gold particles coated with plasmid DNA were administered endoabdominally at a helium pressure of from 350 to 400 psi into HHDA2402 mice (6-to 8-week-old, female). The gold particles were prepared according to a manufacturer's manual. After 2 weeks, booster administration was carried out. After 1 week, spleen cells were collected.
One week after the final immunization, MACS system (trade name, manufactured by Mitlenyi Biotec) using CD8 alpha (Lyt 2) microbeads was used, to select CD8-positive T cells. The purity of the resulting T cell fraction analyzed by flow cytometry was 95% or more.
(§1) A 96-well nitrocellulose ELISPOT plate (trade name: MAHA 54510, manufactured by Millipore Corporation) was incubated overnight with 2 μg/milliliter anti-mouse IFN-gamma mAb (trade name: clone R4-6A2, manufactured by PharMingen Company) at 4° C., to coat the plate. Each well was washed with phosphate buffered physiologic saline (PBS). The well after washing was blocked by incubation at 37° C. for 2 hours in FCS-containing RPMI1640 medium.
Fresh CD8-positive cells (1×10^5 cells/well) derived from the immunized mice and CD8-negative cells (1×10^6 cells/well) pulsed with various peptides were seeded to each well and regulated so as to have a final volume of 200 μl. Then, the cells were cultured at 37° C. for 22 hours. Thereafter, the cells were washed sufficiently with PBS containing 0.05 wt % Tween™ 20 (referred to as “PBS-Tween”). Two hundreds microliters of 1.25 μg/milliliter biotinylated anti-mouse IFN-gamma mAb (trade name, manufactured by PharMingen Company) was added to the cells after washing, and the cells were then cultured overnight at 4° C. The cells thus obtained were washed with PBS-Tween. One hundred microliters of 1 μg/milliliter streptavidin-alkaline phosphatase conjugate (trade name, manufactured by Mabtech Ltd.) was added to the cells after washing. Thereafter, the resulting mixture was incubated at room temperature for 90 minutes, to carry out reaction. The resulting product was washed with PBS-Tween and then stained with an alkaline phosphatase conjugate substrate kit (trade name, manufactured by Bio-Rad Laboratories, Inc.). Thereafter, the product after staining was washed with distilled water to terminate the reaction. Then, the plate was dried and spots were counted.
HHDA2402 mice were immunized with an expression plasmid carrying EB virus-derived EBNA 3A gene by a gene gun. After immunized twice, spleen-derived CD8+ T cells were prepared. CD8-negative cells pulsed with the EBNA 3A246-254 peptide were used as target cells, to carry out ELISPOT assay. […]

[4] = tested on: CD8-positive cells of wild-type C57BL6 mice; assay: IFN-gamma ELISPOT assay, same experiment in wild-type mice; type: cell-based, mouse; details: same experiment as in HHDA2402 mice
Method: as §1
Fresh CD8-positive cells (1×10^5 cells/well) derived from the immunized mice and CD8-negative cells (1×10^6 cells/well) pulsed with various peptides were seeded to each well and regulated so as to have a final volume of 200 μl. Then, the cells were cultured at 37° C. for 22 hours. Thereafter, the cells were washed sufficiently with PBS containing 0.05 wt % Tween™ 20 (referred to as “PBS-Tween”). Two hundreds microliters of 1.25 μg/milliliter biotinylated anti-mouse IFN-gamma mAb (trade name, manufactured by PharMingen Company) was added to the cells after washing, and the cells were then cultured overnight at 4° C. The cells thus obtained were washed with PBS-Tween. One hundred microliters of 1 μg/milliliter streptavidin-alkaline phosphatase conjugate (trade name, manufactured by Mabtech Ltd.) was added to the cells after washing. […] Then, the plate was dried and spots were counted. […]

LYATVIHDI (listed as Homo sapiens) [SAGE715-723]
IFN-γ release in ELISPOT with peptide-pulsed T2A24 as target cell ([1]; T2A24 pulsed with SAGE715-723, control HER263-71, FIG. 4C): IFN-γ was released
induction of peptide-specific bulk CTLs, IFN-γ ELISPOT ([1]; stimulation twice with CD4+ blast cells with truncated SAGE mRNA, T2A24 pulsed with peptide vs control peptide, FIG. 4A): specific bulk CTLs were inducted
HLA-A2402+ healthy normal humans in whom SAGE715-723 HLA-A24 tetramer-positive T cells were detected [2]: three out of six
peptide-specific CTL response in ELISPOT assay (immunogenicity of peptide) [3]: positive

VYGEPRKLL (listed as Homo sapiens) [MAGE-A4239-247]
peptide-specific CTL response in ELISPOT assay [4]: positive
peptide-specific CTL response in ELISPOT assay (immunogenicity of peptide) [3]: positive

RYSIFFDYM (Epstein-Barr virus) [EBNA3A246-254, reference compound]
peptide-specific CTL response in ELISPOT assay (immunogenicity of peptide) [3]: peptide-specific CTLs were detected

LYKPDSNEF (listed as Homo sapiens) [SAGE776-784]
peptide-specific CTL response in ELISPOT assay [4]: positive
peptide-specific CTL response in ELISPOT assay (immunogenicity of peptide) [3]: positive

NYKRCFPVI (listed as Homo sapiens) [MAGE-A4143-151]
IFN-γ ELISPOT reaction to T2A24 cells pulsed with peptide ([1]; MAGE-A4-specific bulk CTLs amplified with mRNA-introduced autologous LCL, autologous PBMC and IL-2, FIG. 2 panel B): reaction specific
peptide-specific CTL response in ELISPOT assay (immunogenicity of peptide) [3]: positive
